Measurements taken from patent US20250041574A1 (TARIS Biomedical LLC, priority 2022, published 2025).
Like-named read-outs stand apart in the source and are kept apart here.

Key:
[1] = not given; remark: listed apart in the source
[2] = dynamic vapor sorption
[3] = urine
Excerpt: On Day −7 a catheter was surgically placed in the bladder of each animal. The distal end of the catheter was anchored to a subcutaneous site and attached to a vascular access port (VAP). The port was secured, and the animals were allowed to recover. Each animal was subsequently fitted with a portable infusion pump that was attached to the bladder catheter via the VAP. […] All excreted urine was collected in 24-hour intervals through Day 6 or 8. Blood samples were collected daily on study Days 1 to 8. Bladder tissue samples were collected from each animal at necropsy.

[4] = In vitro protein binding in minipig urine; type: in vitro ADME
Protocol: (§1) Albuminuria/proteinuria had minimal effect on % free form in urine.
(§2) At the end of 6-hours post-dialysis incubation, drug was analyzed, and the recovery was calculated against the spiked concentrations.

[5] = test system: UM-UC-1 orthotopic bladder tumors; experiment: Continuous bladder perfusion in athymic rats with orthotopic UM-UC-1 bladder tumors
Protocol: Perfusion studies: The bladders of the study animals were cannulated on Day 1 and the animals were allowed to recover for 3 days. On Day 5, UM-UC-1 cells (2×10^6 cells) were injected into the lateral wall of each bladder. […] Based on the in vitro results, target urine concentrations of 0.5, 1.0, and 5.0 μg/mL were used in the perfusion experiments. Body weight, daily urine production, and daily water consumption were recorded. At necropsy, a plasma sample, bladder photographs, and bladder weight measurements were recorded.
The percent reduction in relative tumor weight between the control group and the drug perfusion groups was determined as an initial measure of efficacy. Bladder tissue and tumor samples were also submitted for analysis of FGFR signaling activity by determining the phosphorylated fibroblast growth factor receptor substrate (FRS)2a levels and the pERK to ERK ratio.

[6] = Stability in minipig urine; type: in vitro ADME; settings: freshly collected minipig urine, 37° C., 6 hours
Protocol: as §2

[7] = test system: RT-112 orthotopic bladder tumor; experiment: Continuous bladder perfusion in athymic rats with orthotopic RT-112 bladder tumors
Stability in rat urine = type: in vitro ADME; settings: freshly collected rat urine, 37° C., 6 hours
Protocol: as §2

[8] = In vitro protein binding in human urine; type: in vitro ADME
Protocol: as §1, §2

[9] = rat, in vivo
Excerpt: Rat bladders (5 groups of rats, n=3/group) were surgically catheterized under anesthesia and the catheter was externalized, tunneled subcutaneously, and connected to a vascular access harness (VAH) in the neck. Rats were transferred to individual metabolic cages with free access to food and water during the 1-week post-surgery recovery period. […] Plasma and bladder samples were collected at all time points.

[10] = In vitro protein binding in rat urine; type: in vitro ADME
Protocol: as §1, §2

Stability in human urine = type: in vitro ADME; settings: freshly collected human urine, 37° C., 6 hours
Protocol: as §2

## COc1cc(OC)cc(N(CCNC(C)C)c2ccc3ncc(-c4cnn(C)c4)nc3c2)c1.C[C@H](O)C(=O)O [Erdafitinib L-lactate salt]
EVA (CoTran 9712)
  In Vitro Permeation: ◯
TPU (EG-80A)
  In Vitro Permeation: Δ
TPU (HP-60D-35)
  In Vitro Permeation: ◯
TPU (HP-93A-100)
  In Vitro Permeation: ◯
[1]; as function of pH in water and simulated urine at 37° C.
  solubility: very high solubility over a broad pH range
[2]
  DVS: Non-hygroscopic

## COc1cc(OC)cc(N(CCNC(C)C)c2ccc3ncc(-c4cnn(C)c4)nc3c2)c1 [erdafitinib, N-(3,5-dimethoxyphenyl)-N′-(1-methylethyl)-N-[3-(1-methyl-1H-pyrazol-4-yl)quinoxalin-6-yl]ethane-1,2-diamine]
EVA (CoTran 9712)
  In Vitro Permeation: Δ
TPU (EG-80A)
  In Vitro Permeation: Δ
TPU (HP-60D-35)
  In Vitro Permeation: ◯
TPU (HP-93A-100)
  In Vitro Permeation: ◯
[3]
  Daily erdafitinib recoveries, of the average daily amount administered: 15.7%
[4]
  Percent erdafitinib free in urine: 97%
[5]; 0.5 (p<0.01), 1.0 and 5 μg/mL (p<0.001) nominal urine concentrations, 5 days perfusion
  bladder weight vs vehicle control: significant dose-related decrease
[5]; 0.5, 1.0 and 5.0 μg/mL treatment groups
  percentage change in body weight vs vehicle control: Statistically non-significant difference
[5]; 5 days continuous perfusion, 0.5, 1.0, 5.0 μg/mL, any treatment group
  cage side observations: no visible signs of abnormal behavior or clinical symptoms
[6]
  stability in urine: sufficiently stable
[7]; 1.0 μg/mL perfusate concentration, p<0.05
  bladder weight vs vehicle control: significant bladder weight reduction
[7]; 0.25 and 0.5 μg/mL dose groups
  bladder weight decrease vs vehicle control: not statistically significant
[7]; 0.5, 1.0 and 5.0 μg/mL treatment groups (so in the source), except Group 4 on Day 11 (p<0.05)
  percentage change in body weight vs vehicle control: Statistically non-significant difference
[7]; erdafitinib-treated group, Day 11
  body weight loss, maximum mean values: up to −3%
[1]; normal urine pH range of 5.5 to 7
  solubility: significant pH-dependent solubility
Stability in rat urine
  stability in urine: sufficiently stable
[8]
  Percent erdafitinib free in urine: 95%
[9]; female, Sprague-Dawley, 0.72 mg
  AUC0-120h: 127,000 ng · h/mL
[9]
  C96h: BQL
  C120h: BQL
[2]
  DVS: Non-hygroscopic
[10]
  Percent erdafitinib free in urine: 84%
Stability in human urine
  stability in urine: sufficiently stable
